Values of other authors in patent US7922709B2, “Enhanced delivery of naked DNA to skin by non-invasive in vivo electroporation” (priority 1998, dated 2011).

## bleomycin
  log P (partition coefficient between octanol and water): very negative
